In US8841233B2, “Herbicidal compositions comprising 4-amino-3-chloro-5-fluoro-6-(4-chloro-2-fluoro-3-methoxyphenyl) pyridine-2-carboxylic acid or a derivative thereof and 4-hydroxyphenyl-pyruvate dioxygenase (HPPD) inhibitors” (Dow Agrosciences LLC, priority 2012, dated 2014):

Legend:
[1] = tested on: CYPIR; experiment: Post-emergence foliar-applied weed control, greenhouse (Example I); format: in vivo, Cyperus iria L.
Description: (§1) Evaluation of Post-emergence Foliar-Applied Herbicidal Mixtures for Weed Control in Direct Seeded Rice
(§2) Seeds or nutlets of the desired test plant species were planted in a soil matrix prepared by mixing a loam or sandy loam soil (e.g., 28.6 percent silt, 18.8 percent clay, and 52.6 percent sand, with a pH of about 5.8 and an organic matter content of about 1.8 percent) and calcareous grit in an 80 to 20 ratio. The soil matrix was contained in plastic pots with a volume of 1 quart and a surface area of 83.6 square centimeters (cm^2). When required to ensure good germination and healthy plants, a fungicide treatment and/or other chemical or physical treatment was applied. The plants were grown for 8-22 days in a greenhouse with an approximate 14 h photoperiod which was maintained at about 29° C. during the day and 26° C. during the night. Nutrients (Peters Excel® 15-5-15 5-Ca 2-Mg and iron chelate) were applied in the irrigation solution as needed and water was added on a regular basis. Supplemental lighting was provided with overhead metal halide 1000-Watt lamps as necessary. The plants were employed for testing when they reached the first through fourth true leaf stage.
(§3) Treatments consisted of the acid or esters of 4-amino-3-chloro-5-fluoro-6-(4-chloro-2-fluoro-3-methoxy-phenyl)pyridine-2-carboxylic acid (Compound A), each formulated as an SC (suspension concentrate), and various herbicidal components alone and in combination. Forms of Compound A were applied on an acid equivalent basis.
(§4) Other herbicidal components were applied on an active ingredient basis and included 4-hydroxyphenyl pyruvate dioxygenase (HPPD)-inhibiting herbicides mesotrione formulated as Callisto®, sulcotrione formulated as Mikado®, pyrazolynate formulated as Sunbird® 10% GR, and benzobicyclon formulated as Benzobicyclon 3.5%.
(§5) Treatment requirements were calculated based upon the rates being tested, the concentration of active ingredient or acid equivalent in the formulation, and a 12 mL application volume at a rate of 187 L/ha.
(§6) For treatments comprised of formulated compounds, measured amounts of compounds were placed individually in 25 mL glass vials and diluted in a volume of 1.25% (v/v) Agri-Dex® crop oil concentrated to obtain 12× stock solutions. […] Application solutions were prepared by adding an appropriate amount of each stock solution (e.g., 1 mL) and diluted to the appropriate final concentrations with the addition of 10 mL of an aqueous mixture of 1.25% (v/v) crop oil concentrate so that the final spray solutions contained 1.25+/−0.05% (v/v) crop oil concentrate.
(§7) For treatments comprised of formulated and technical compounds, weighed amounts of the technical materials were placed individually in 25 mL glass vials and dissolved in a volume of 97:3 v/v acetone/DMSO to obtain 12× stock solutions, and measured amounts of the formulated compounds were placed individually in 25 mL glass vials and diluted in a volume of 1.5% (v/v) crop oil concentrate or water to obtain 12× stock solutions. […] Application solutions were prepared by adding an appropriate amount of each stock solution (e.g., 1 mL) and diluted to the appropriate final concentrations with the addition of an appropriate amount of an aqueous mixture of 1.5% (v/v) crop oil concentrate so that the final spray solutions contained 1.25% (v/v) crop oil concentrate. As required, additional water and/or 97:3 v/v acetone/DMSO was added to individual application solutions so that the final acetone and DMSO concentrations of the application solutions being compared were 8.1% and 0.25%, respectively.
(§8) All stock solutions and applications solutions were visually inspected for compound compatibility prior to application. Spray solutions were applied to the plant material with an overhead Mandel track sprayer equipped with a 8002E nozzles calibrated to deliver 187 L/ha over an application area of 0.503 m^2 at a spray height of 18 to 20 inches (46 to 50 cm) above average plant canopy height. […]

[2] = tested on: DIGSA; experiment: as above; format: in vivo, Digitaria sanguinalis (L.) Scop.
Description: as §1, §2, §3, §4, §5, §6, §7, §8

| SMILES | Visual Weed Control (%) - 20 DAA CYPIR Obs ([1]; 4.38 gae/ha) | Visual Weed Control (%) - 20 DAA CYPIR Obs ([1]; 8.75 gae/ha) | Visual Weed Control (%) - 20 DAA CYPIR Obs ([1]; 17.5 gae/ha) | Visual Weed Control (%) - 20 DAA DIGSA Obs ([2]; 4.38 gae/ha) | Visual Weed Control (%) - 20 DAA DIGSA Obs ([2]; 8.75 gae/ha) | Visual Weed Control (%) - 20 DAA DIGSA Obs ([2]; 17.5 gae/ha) | Visual Weed Control (%) - 22 DAA CYPIR Obs ([1]; 4.38 gae/ha) | Visual Weed Control (%) - 22 DAA CYPIR Obs ([1]; 8.75 gae/ha) | Visual Weed Control (%) - 20 DAA DIGSA Obs ([2]; 35 gae/ha) |
| --- | --- | --- | --- | --- | --- | --- | --- | --- | --- |
| COc1c(Cl)ccc(-c2nc(C(=O)O)c(Cl)c(N)c2F)c1F [Compound A Acid, 4-amino-3-chloro-6-(4-chloro-2-fluoro-3-methoxyphenyl)-5-fluoropyridine-2-carboxylic acid] | 75% | 90% | 90% | 40% | 45% | 45% | – | – | – |
| COc1c(Cl)ccc(-c2nc(C(=O)OCc3ccccc3)c(Cl)c(N)c2F)c1F [Compound A Benzyl Ester, benzyl ester of 4-amino-3-chloro-5-fluoro-6-(4-chloro-2-fluoro-3-methoxy-phenyl)pyridine-2-carboxylic acid] | – | – | – | 25% | 40% | 50% | 10% | 65% | 38% |
